This is an account of results in EP2654730B1, “HIGH DRUG LOAD PHARMACEUTICAL FORMULATIONS COMPRISING DRONEDARONE AND ITS PHARMACEUTICALLY ACCEPTABLE SALTS” (KRKA, d.d., Novo mesto, priority 2010, dated 2012).

One may read the solubility as the dissolved amount per volume that the medium holds.

The nature of data set [1]: Particle size d90 by laser light scattering (Malvern Mastersizer MS 2000). It is filed as physicochemical. The following applies: particles after crystallization and Jetmill MC-50 micronization. An excerpt:
As used herein d90<x means that at least 90% by volume of the particles have a particle size below x. The particle size can be determined by laser light scattering for instance using a Malvern Mastersizer Apparatus MS 2000 equipped with a Hydro S dispersion unit. Silicon fluid F10 may be used as dispersion medium.

Data set [2] can be described thus: Dissolution test of Dronedarone HCl 400 mg tablets (Apparatus 2 paddle). It counts as physicochemical. The conditions noted are these: at 60 minutes, paddle 75 rpm, 1000 ml Buffer Solution pH 4.5. The method, then:
The dissolution profiles of several of the pharmaceutical compositions exemplified above are determined.
Dissolution conditions for Dronedarone HCl 400 mg tablets: • Apparatus: 2 - Paddle (USP and Ph. Eur.) • Rotation speed: 75 rpm • Medium: 1000 ml Buffer Solution pH 4.5
API 1 or API 2 was included in the pharmaceutical composition as disclosed in example 17.
The pharmaceutical compositions used in dissolution test shown in Figure 2 comprised different surfactants or no surfactant. The pharmaceutical compositions were prepared according to examples 16A-D, 17A and 18A by using API 1, API 2 or API 3.

Data set [3] is described as follows: Specific surface area of dronedarone HCl particles (BET method). The conditions noted are these: particles after crystallization and Jetmill MC-50 micronization. It is filed as physicochemical. An excerpt: The specific surface area can be determined using the BET method.
For data set [4] the following is noted: aqueous media, pH 3-5 (maximal); cited from earlier work.

SMILES strings stand for the structures. Counter-ions that a name gives are not always drawn.

For the molecule `CCCCc1oc2ccc(NS(C)(=O)=O)cc2c1C(=O)c1ccc(OCCCN(CCCC)CCCC)cc1.Cl` [API 1], in data set [1], the “Particle size d90” value came out at 5.1 µm. Further, the dissolution rate result in data set [2] (compositions of examples 16A-D, 17A and 18A, compared with compositions prepared from API 2 or API 3) was “substantial lower dissolution rate”; in data set [2] (tablet composition of example 17, compared with same composition prepared from API 2), “substantial lower dissolution rate”. Besides, the Specific surface area in data set [3] was 8.3 m^2/g.
With `CCCCc1oc2ccc(NS(C)(=O)=O)cc2c1C(=O)c1ccc(OCCCN(CCCC)CCCC)cc1.Cl` [API 2], the “Particle size d90” value in data set [1] worked out at 7.1 µm. Besides, the Specific surface area in data set [3] came out at 6.2 m^2/g.
Turning to `CCCCc1oc2ccc(NS(C)(=O)=O)cc2c1C(=O)c1ccc(OCCCN(CCCC)CCCC)cc1` [dronedarone hydrochloride, N-(2-butyl-3-(p-(3-(dibutylamino)propoxy)benzoyl)-5-benzofuranyl)methanesulfonamide], the solubility in data set [4] is 1000 to 2000 µg/mL.
As for `CCCCc1oc2ccc(NS(C)(=O)=O)cc2c1C(=O)c1ccc(OCCCN(CCCC)CCCC)cc1.Cl` [API 3], the “Particle size d90” value in data set [1] was found to be 7.4 µm. The same molecule registered a Specific surface area in data set [3] of 6.0 m^2/g.
